Key:
participants with SSc-RP [1] = test: SHAQ - Standard Disability Index; type: in vivo, human; set-up: key to SHAQ Standard Disability Index, In-Clinic Visit (Day 12), Mean / SHAQ Standard Disability Index, In-Clinic Visit (Day 12), Median / SHAQ Standard Disability Index, Day 12, Mean / SHAQ Standard Disability Index, Day 12, Median: 0 = without any difficulty to 3 = unable to do; conditions: Tadalafil 5 mg
Excerpt: (§1) The standard, validated, patient reported outcome measures tool for SSc patients, the Scleroderma Health Assessment Questionnaire (SHAQ), will be used to assess the participant qualify of life. Details are attached in the Appendix. The participant quality of life will be scored, and a disability index calculated for each questionnaire completed by the patient at Screening and each in-clinic visit. The absolute change in participant quality of life from baseline to the end of each dosing period will be calculated similar to frequency data as before.
The SHAQ is used to calculate a Disability Index to assess the participant qualify of life. The eight categories assessed by the Disability Index are 1) dressing and grooming, 2) arising, 3) eating, 4) walking, 5) hygiene, 6) reach, 7) grip, and 8) common daily activities. For each of these categories, patients report the amount of difficulty they have in performing two or three specific activities.
There are four possible responses for the Disability Index questions: • Without any difficulty=0 • With some difficulty=1 • With much difficulty=2 • Unable to do=3 • The highest score reported by the patient for any component question of the eight categories determines the score for that category. • If a component question is left blank or the response is too ambiguous to assign a score, then the score for that category is determined by the remaining completed question(s). • If all component questions are blank or if more than one answer is given, then follow up with the respondent is required. • If the respondent's mark is between the response columns, then move it to the closest one. If it's directly between the two, move it to the higher one.
This question results in a new set of category scores that are computed by adjusting the score for each category, if necessary, based on the patient's use of an aid or device or assistance for that category. If either devices and/or help from another person are checked for a category, the score is set to “2”, unless the score is already “3” (i.e., scores of “0” or “1” are increased to “2”). For example, if the highest score for the dressing category is “1”, and the patient says they use a device for dressing, the computed category score would be “2”. The sum of the computed categories scores is then calculated and divided by the number of categories answered. This gives a score in the 0 to 3 range.

participants with SSc-RP [2] = test: SHAQ - Visual Analog Scale - Overall Disease Severity; type: in vivo, human; conditions: tadalafil 5 mg
Excerpt: as §1
The standard, validated, patient reported outcome measures tool for SSc patients, the SHAQ, was collected at the time points specified in the study schedules (FIG. 2 and FIGS. 4A and 4B) to assess the participant's quality of life. The SHAQ included a Raynaud's VAS that will also be reported separately.

[3] = Day 12, PP Population Part A, sensitivity analysis

CN1CC(=O)N2[C@H](c3ccc4c(c3)OCO4)c3[nH]c4ccccc4c3C[C@@H]2C1=O [Tadalafil]
SHAQ Standard Disability Index, In-Clinic Visit (Day 12), Mean (participants with SSc-RP [1]; [3]): 0.531 | SHAQ Standard Disability Index, In-Clinic Visit (Day 12), Median (participants with SSc-RP [1]; [3]): 0.563 | SHAQ Standard Disability Index, Change from Baseline, Max (participants with SSc-RP [1]; SSc patients, PP, Part A): 0.00 | SHAQ Standard Disability Index, Change from Baseline, Min (participants with SSc-RP [1]; SSc patients, PP, Part A): −0.13, | SHAQ Standard Disability Index, Change from Baseline, Q1 (participants with SSc-RP [1]; SSc patients, PP, Part A): −0.125, | SHAQ Standard Disability Index, Change from Baseline, Q3 (participants with SSc-RP [1]; SSc patients, PP, Part A): 0.000 | SHAQ Standard Disability Index, Day 12, Max (participants with SSc-RP [1]; SSc patients, PP, Part A): 1.00 | SHAQ Standard Disability Index, Day 12, Min (participants with SSc-RP [1]; SSc patients, PP, Part A): 0.00, | SHAQ Standard Disability Index, Day 12, Q1 (participants with SSc-RP [1]; SSc patients, PP, Part A): 0.250, | SHAQ Standard Disability Index, Day 12, Q3 (participants with SSc-RP [1]; SSc patients, PP, Part A): 0.813 | SHAQ Standard Disability Index, Percent Change from Baseline, Max (participants with SSc-RP [1]; SSc patients, PP, Part A): 0.0 | SHAQ Standard Disability Index, Percent Change from Baseline, Min (participants with SSc-RP [1]; SSc patients, PP, Part A): −16.7, | SHAQ Standard Disability Index, Percent Change from Baseline, Q1 (participants with SSc-RP [1]; SSc patients, PP, Part A): −16.67, | SHAQ Standard Disability Index, Percent Change from Baseline, Q3 (participants with SSc-RP [1]; SSc patients, PP, Part A): 0.00 | VAS Overall Severity Change from Baseline Max (participants with SSc-RP [2]): 2.40 | VAS Overall Severity Change from Baseline Median (participants with SSc-RP [2]): 0.700 | VAS Overall Severity Change from Baseline Min (participants with SSc-RP [2]): −1.30 | VAS Overall Severity Change from Baseline Q1 (participants with SSc-RP [2]): −0.600 | VAS Overall Severity Change from Baseline Q3 (participants with SSc-RP [2]): 1.850 | VAS Overall Severity Day 12 Max (participants with SSc-RP [2]): 9.10 | VAS Overall Severity Day 12 Mean (participants with SSc-RP [2]): 5.600 | VAS Overall Severity Day 12 Min (participants with SSc-RP [2]): 0.20 | VAS Overall Severity Day 12 Q1 (participants with SSc-RP [2]): 2.200 | VAS Overall Severity Day 12 Q3 (participants with SSc-RP [2]): 9.000 | VAS Overall Severity Percent Change from Baseline Max (participants with SSc-RP [2]): 100.0% | VAS Overall Severity Percent Change from Baseline Min (participants with SSc-RP [2]): −23.6% | VAS Overall Severity Percent Change from Baseline Q1 (participants with SSc-RP [2]): −3.48% | VAS Overall Severity Percent Change from Baseline Q3 (participants with SSc-RP [2]): 68.46%

Reference: patent publication US20240358692A1, “TREATMENT OF SCLERODERMA” (Aisa Pharma, Inc., priority 2023, published 2024)
